Reference: patent publication US7858319B2, “Method of screening for drug hypersensitivity reaction” (SmithKline Beecham Corporation, priority 2001, dated 2010)
Counter-ions that a name gives are not always drawn.

What was measured:
TNFα gene = test: Retrospective case-control study of abacavir hypersensitivity: TNFα polymorphisms (5′ nuclease assay); assay type: in vivo, human
Source text: Control subjects were matched for study (if possible) ethnicity, gender, CD4+ cell count (if available; four CD4+ ranges: <50, 50-200, 201-500, >500 cells/mm3); and age (plus or minus 5 years).
The presence of the TNFα G(−237A) polymorphism may be determined using a fluorescent dye and quenching agent-based PCR assay, such as the allele discrimination form of the 5′ nuclease assay (Lee and Bloch, Nucleic Acids Research 21:3761 (1993)). In brief, this assay uses two allele specific probes labeled differentially with fluorescent “reporter” dyes at the 5′ ends and with a common quenching agent at the 3′ ends. Normally the fluorescence of each reporter dye is quenched by the quenching agent when present in the same oligonucleotide molecule. The allele specific probes are used in conjunction with two primers, one of which hybridizes to the template 5′ of allele specific probes while the other hybridizes to the template 3′ of the such probes.
The presence of the TNFα G(−237)A polymorphisms was determined by the method of allelic discrimination using the 5′-nuclease assay. Two allele specific probes labeled with a different fluorescent dye at the 5′ ends, but with a common quenching agent at the 3′ ends, were used:
The two allele specific probes were designed using specialized computer software as is known in the art, such that certain properties (melting temperature, GC content, position of the polymorphic base, location within the amplicon) were matched as far as possible, only allowing complete hybridisation to the template DNA when the allele specific polymorphic base was present.
The allele specific probes were used in conjunction with two primers, one of which hybridized to the template 5′ of the two allele-specific probes, whilst the other hybridized to the template 3′ of the two probes:
If the allele corresponding to one of the specific probes was present, the specific probe hybridized perfectly to the target sequence derived from the template. The thermostable polymerase, extending the primer in a 5′ to 3′ direction toward the allele specific probe, then removed the nucleotides from the specific probe, releasing both the fluorescent dye and the quenching agent.
At the end of the thermal cycling PCR, the ABI PRISM™ 7700 sequence detection system was used to measure the increase in the fluorescence from each specific dye directly in PCR reaction vessels. The information from the reactions was then analyzed. If an individual was homozygous for a particular allele, fluorescence corresponding only to the dye from that specific probe was released, but if the individual was heterozygous, then fluorescence from both dyes increased.
(§1) Informed consent was obtained. Subjects were classified as either ‘case’ or ‘control’. The following criteria were used to identify cases: • 1.
(§2) Blood samples were collected into appropriate blood collection tubes.

HLA-B57 and TNFα-237 = test: Retrospective case-control study of abacavir hypersensitivity: HLA-B57 and TNFα-237 association; assay type: in vivo, human
Source text: as §1, §2
All but two cases of hypersensitivity reactions with the TNFα-238A allele were also HLA-B57 positive; five cases of hypersensitivity that were HLA-B57 positive lacked the TNFα-238A allele.

[1] = tested on: Alcohol Dehydrogenase ADH7; test: Retrospective case-control study of abacavir hypersensitivity: ADH7 polymorphism; assay type: in vivo, human; settings: ADH7-C94T, Table 12
Source text: Informed consent was obtained. Subjects were classified as either ‘case’ or ‘control’. […] Blood samples were collected into appropriate blood collection tubes.

MICA = test: Retrospective case-control study of abacavir hypersensitivity: MICA polymorphisms; settings: Table 12
[2] = tested on: UDP-glucuronosyltransferase (UGT1A6-A551C); test: Retrospective case-control study of abacavir hypersensitivity: UGT1A6 polymorphism; assay type: in vivo, human; settings: A1 = A, Table 12
Source text: as §1, §2

[3] = MICA (exon 2) RS1063630, A1 = T
[4] = MICA (exon 2) RS1063630, A2 = G
[5] = MICA (exon 3) RS1051792, A1 = G
[6] = MICA (exon 3) RS1051792, A2 = A
[7] = MICA (−9, 263) RS1052416, A1 = A
[8] = MICA (−9, 263) RS1052416, A2 = G

Nc1nc(NC2CC2)c2ncn([C@H]3C=C[C@@H](CO)C3)c2n1 [abacavir, (cis)-4-[2-amino-6-(cyclopropylamino)-9H-purin-9-yl]-2-cyclopentene-1-methanol sulfate (salt) (2:1)]
HSR cases carrying marker, % (TNFα gene; TNFα (−237) RS361525, A2 = A, Table 12): 43% | HSR cases carrying marker, % (TNFα gene; TNFα G(−237)A 1,1 (G/G), Table 4, Cases N = 44): 50% | Controls carrying marker, % (TNFα gene; TNFα G(−237)A 1,1 (G/G), Table 4, Controls N = 76): 93% | HSR cases carrying marker, % (TNFα gene; TNFα G(−237)A 1,1 (G/G), Table 8 cumulative, Cases N = 57): 56% | Controls carrying marker, % (TNFα gene; TNFα G(−237)A 1,1 (G/G), Table 8 cumulative, Controls N = 99): 93% | HSR cases carrying marker, % (TNFα gene; TNFα G(−237)A 1,2 (G/A), Table 4, Cases N = 44): 45% | Controls carrying marker, % (TNFα gene; TNFα G(−237)A 1,2 (G/A), Table 4, Controls N = 76): 5% | HSR cases carrying marker, % (TNFα gene; TNFα G(−237)A 1,2 (G/A), Table 8 cumulative, Cases N = 57): 40% | Controls carrying marker, % (TNFα gene; TNFα G(−237)A 1,2 (G/A), Table 8 cumulative, Controls N = 99): 6 (6%) | HSR cases carrying marker, % (TNFα gene; TNFα G(−237)A 2,2 (A/A), Table 4, Cases N = 44): 5% | Controls carrying marker, % (TNFα gene; TNFα G(−237)A 2,2 (A/A), Table 4, Controls N = 76): 1 (1%) | HSR cases carrying marker, % (TNFα gene; TNFα G(−237)A 2,2 (A/A), Table 8 cumulative, Cases N = 57): 4% | Controls carrying marker, % (TNFα gene; TNFα G(−237)A 2,2 (A/A), Table 8 cumulative, Controls N = 99): 1 (1%) | Controls carrying marker, % (HLA-B57 and TNFα-237; TNFα-237 A Allele, subjects with HLA-B57 present, Controls N 3): 33% | HSR cases carrying marker, % (HLA-B57 and TNFα-237; TNFα-237 A Allele, subjects with HLA-B57 present, HSR Cases N 28): 82% | Controls carrying marker, % (HLA-B57 and TNFα-237; TNFα-237 A Allele, subjects without HLA-B57, Controls N 96): 5 (5) % | HSR cases carrying marker, % (HLA-B57 and TNFα-237; TNFα-237 A Allele, subjects without HLA-B57, HSR Cases N 30): 7% | Controls carrying marker, % (HLA-B57 and TNFα-237; TNFα-237 Without A Allele, subjects with HLA-B57 present, Controls N 3): 67% | HSR cases carrying marker, % (HLA-B57 and TNFα-237; TNFα-237 Without A Allele, subjects with HLA-B57 present, HSR Cases N 28): 18% | Controls carrying marker, % (HLA-B57 and TNFα-237; TNFα-237 Without A Allele, subjects without HLA-B57, Controls N 96): 95% | HSR cases carrying marker, % (HLA-B57 and TNFα-237; TNFα-237 Without A Allele, subjects without HLA-B57, HSR Cases N 30): 93% | Controls carrying marker, % ([1]; A1 = C): 17% | HSR cases carrying marker, % ([1]; A1 = C): 5% | Controls carrying marker, % ([1]; A2 = T): 84% | HSR cases carrying marker, % ([1]; A2 = T): 96% | Controls carrying marker, % (MICA; [3]): 96% | HSR cases carrying marker, % (MICA; [3]): 83% | Controls carrying marker, % (MICA; [4]): 48% | HSR cases carrying marker, % (MICA; [4]): 67% | Controls carrying marker, % (MICA; [5]): 90% | HSR cases carrying marker, % (MICA; [5]): 77% | Controls carrying marker, % (MICA; [6]): 58% | HSR cases carrying marker, % (MICA; [6]): 82% | Controls carrying marker, % (MICA; [7]): 70% | HSR cases carrying marker, % (MICA; [7]): 92% | Controls carrying marker, % (MICA; [8]): 72% | HSR cases carrying marker, % (MICA; [8]): 37% | Controls carrying marker, % [2]: 60% | HSR cases carrying marker, % [2]: 77%
